In patent US10526332B2, “Imidazo-pyrimidone compounds, and preparation method and application thereof” (Nanjing Gator Meditech Company, Ltd., priority 2015, dated 2020):
Values belong to the compound of their own block, whether it stands above or below them.

What was measured:
[1] = tested on: HCT116; experiment: MTS cell proliferation test, HCT116; conditions: Homo sapiens, HCT-116, 72 h, read-out: HCT116 IC50 (Mean ± SD);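 note: absorbance at 490 nm after MTS/PMS addition, survival relative to untreated cells (100%) after blank subtraction, IC50 from the concentration–survival curve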
Method: (§1) The disclosed compounds and their pharmaceutically accepted salts are assayed for their anti-cancer activities by the following method. • MTS Cell Proliferation Test 1. Materials 1.1. […] Cell Lines
(§2) Two cell lines were used, both HCT116 and MDA-MB-231 were purchased from USATCC.
(§3) MTS reagent powder was purchased from Promega. Cat #G1111; PMS from Sigma, Cat #P8625; cell culture medium RPMI-1640, Cat #10040562R; DMEM, Cat #0013CVR; 100× sodium pyruvate solution Cat #136007; 100× Penicillin Streptomycin Solution, Cat ⊇15140122; 100× Penicillin Streptomycin Solution, Cat #15140122; 0.25% Trypsin (Parenzyme), Cat #25200-072; and fetal bovine serum, Cat #16000-044 were all purchased from Life Technologies.
(§4) • Thermo incubator (Format 371); • Heat force Biosafety Cabinet (HF sage 1500); • BioTek Microplate Reader (Synergy 2). 2. […] 2.3 Procedure of MTS Methods:
(§5) Cells at logarithmic phase were harvested, then digested with 0.25% trypsin, and re-suspense in complete growth medium. 150 uL/well of HCT-116 and MDA-MB-231 were dispensed into 96 well culture plates with 2.5×10^3 cell/well. The plates were pre-incubated in a humidified CO2 incubator at 37° C., 5% CO2) for 24 hours. 50 uL of various concentration of test compounds and reference compound were added. A negative control (only cells and culture medium without compound) and blank control (only culture medium without cells) were set at the same time. The plates were incubated for 72 hr in the incubator. The MTS/PMS solution was prepared and added into 96 well plates according to the test instruction by Promega Corporation. The plates were incubated again for some time, then the absorbance at 490 nm were measured using Biotek Instruments, Inc microplate reader and the cell survival rates calculated. Cell Survival Rate(%)=(At−Ab)/(Ac−Ab)×100% where, • At=Absorbance value of test compound • Ab=Absorbance value of blank • Ac=Absorbance value of control 3. Results

[2] = tested on: MDA-MB-231; experiment: MTS cell proliferation test, MDA-MB-231; conditions: Homo sapiens, MDA-MB-231, 72 h, read-out: MDA231 IC50 (Mean ± SD);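 note: cells settled 24 h before compound addition, MTS absorbance at 490 nm, survival as percent of untreated cells after blank subtraction, IC50 fitted from survival versus concentration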
Method: as §1, §2, §3, §4, §5

Compound: O=C1C2=C(CCN(Cc3ccccc3Cl)C2)N2CCN=C2N1Cc1ccccc1C(F)(F)F [Compound I-24, 7-(2-chlorobenzyl)-4-(2-(trifluoromethyl)benzyl)-1,2,6,7,8,9-hexahydroimidazo[1,2-a]pyrido[3,4-e]pyrimidin-5(4H)-one]
IC50 [1]: 2.09 ± 0.041 µM
IC50 [2]: 1.99 ± 0.039 µM

Compound: O=C1C2=C(CCN(Cc3ccccc3Cl)C2)N2CCN=C2N1Cc1ccccc1Cl [Compound I-25, 4,7-bis(2-chlorobenzyl)-1,2,6,7,8,9-hexahydroimidazo[1,2-a]pyrido[3,4-e]pyrimidin-5(4H)-one]
IC50 [1]: 1.95 ± 0.064 µM
IC50 [2]: 1.31 ± 0.154 µM

Compound: O=C1C2=C(CCN(Cc3ccccc3Cl)C2)N2CCN=C2N1Cc1ccccc1Br [Compound I-26, 4-(2-bromobenzyl)-7-(2-chlorobenzyl)-1,2,6,7,8,9-hexahydroimidazo[1,2-a]pyrido[3,4-e]pyrimidin-5(4H)-one]
IC50 [1]: 1.5 ± 0.394 µM
IC50 [2]: 2.08 ± 0.067 µM

Compound: Cc1ccccc1CN1C(=O)C2=C(CCN(Cc3ccccc3Cl)C2)N2CCN=C12 [Compound I-27, 7-(2-chlorobenzyl)-4-(2-methylbenzyl)-1,2,6,7,8,9-hexahydroimidazo[1,2-a]pyrido[3,4-e]pyrimidin-5(4H)-one]
IC50 [1]: 2.13 ± 0.045 µM
IC50 [2]: 2.26 ± 0.018 µM

Compound: O=C1C2=C(CCN(Cc3cccc(Br)c3)C2)N2CCN=C2N1Cc1ccccc1Cl [Compound I-28, 7-(3-bromobenzyl)-4-(2-chlorobenzyl)-1,2,6,7,8,9-hexahydroimidazo[1,2-a]pyrido[3,4-e]pyrimidin-5(4H)-one]
IC50 [1]: 2.2 ± 0.017 µM
IC50 [2]: 2.22 ± 0.029 µM

Compound: Cc1ccccc1CN1C(=O)C2=C(CCN(Cc3cccc(Br)c3)C2)N2CCN=C12 [Compound I-29, 7-(3-bromobenzyl)-4-(2-methylbenzyl)-1,2,6,7,8,9-hexahydroimidazo[1,2-a]pyrido[3,4-e]pyrimidin-5(4H)-one]
IC50 [1]: 0.72 ± 0.001 µM
IC50 [2]: 0.74 ± 0.002 µM

Compound: Cc1cccc(CN2CCC3=C(C2)C(=O)N(Cc2ccccc2F)C2=NCCN23)c1 [Compound I-30, 4-(2-fluorobenzyl)-7-(3-methylbenzyl)-1,2,6,7,8,9-hexahydroimidazo[1,2-a]pyrido[3,4-e]pyrimidin-5(4H)-one]
IC50 [1]: 2.07 ± 0.062 µM
IC50 [2]: 2.13 ± 0.005 µM

Compound: Cc1cccc(CN2CCC3=C(C2)C(=O)N(Cc2ccccc2C(F)(F)F)C2=NCCN23)c1 [Compound I-31, 7-(3-methylbenzyl)-4-(2-(trifluoromethyl)benzyl)-1,2,6,7,8,9-hexahydroimidazo[1,2-a]pyrido[3,4-e]pyrimidin-5(4H)-one]
IC50 [1]: 1.25 ± 0.122 µM
IC50 [2]: 1.65 ± 0.05 µM

Compound: Cc1cccc(CN2CCC3=C(C2)C(=O)N(Cc2ccccc2Cl)C2=NCCN23)c1 [Compound I-32, 4-(2-chlorobenzyl)-7-(3-methylbenzyl)-1,2,6,7,8,9-hexahydroimidazo[1,2-a]pyrido[3,4-e]pyrimidin-5(4H)-one]
IC50 [1]: 0.77 ± 0.048 µM
IC50 [2]: 0.74 ± 0.001 µM

Compound: Cc1cccc(CN2CCC3=C(C2)C(=O)N(Cc2ccccc2Br)C2=NCCN23)c1 [Compound I-33, 4-(2-bromobenzyl)-7-(3-methylbenzyl)-1,2,6,7,8,9-hexahydroimidazo[1,2-a]pyrido[3,4-e]pyrimidin-5(4H)-one]
IC50 [1]: 0.72 ± 0.001 µM
IC50 [2]: 0.86 ± 0.136 µM

Compound: Cc1cccc(CN2CCC3=C(C2)C(=O)N(Cc2ccccc2C)C2=NCCN23)c1 [Compound I-34, 4-(2-methylbenzyl)-7-(3-methylbenzyl)-1,2,6,7,8,9-hexahydroimidazo[1,2-a]pyrido[3,4-e]pyrimidin-5(4H)-one]
IC50 [1]: 0.73 ± 0.001 µM
IC50 [2]: 0.73 ± 0.002 µM

Compound: O=C1C2=C(CCN(Cc3cccc(Cl)c3)C2)N2CCN=C2N1Cc1ccccc1C(F)(F)F [Compound I-35, 7-(3-chlorobenzyl)-4-(2-(trifluoromethyl)benzyl)-1,2,6,7,8,9-hexahydroimidazo[1,2-a]pyrido[3,4-e]pyrimidin-5(4H)-one]
IC50 [1]: 6.21 ± 0.077 µM
IC50 [2]: 4.21 ± 0.634 µM

Compound: O=C1C2=C(CCN(Cc3cccc(Cl)c3)C2)N2CCN=C2N1Cc1ccccc1Cl [Compound I-36, 4-(2-chlorobenzyl)-7-(3-chlorobenzyl)-1,2,6,7,8,9-hexahydroimidazo[1,2-a]pyrido[3,4-e]pyrimidin-5(4H)-one]
IC50 [1]: 0.72 µM
IC50 [2]: 0.74 ± 0.001 µM

Now from value to compound:

IC50 [1]: 2.31 ± 0.033 µM
IC50 [2]: 2.33 ± 0.095 µM
Compound: O=C1C2=C(CCN(Cc3cccc(Cl)c3)C2)N2CCN=C2N1Cc1ccccc1Br [Compound I-37, 4-(2-bromobenzyl)-7-(3-chlorobenzyl)-1,2,6,7,8,9-hexahydroimidazo[1,2-a]pyrido[3,4-e]pyrimidin-5(4H)-one]

IC50 [1]: 0.24 ± 0.02 µM
IC50 [2]: 0.4 ± 0.03 µM
Compound: O=C1C2=C(CCN(Cc3ccccc3)C2)N2CCN=C2N1Cc1cccc(C(F)(F)F)c1 [Compound I-38, 7-benzyl-4-(3-(trifluoromethyl)benzyl)-1,2,6,7,8,9-hexahydroimidazo[1,2-a]pyrido[3,4-e]pyrimidin-5(4H)-one]

IC50 [1]: 0.03 µM
IC50 [2]: 0.05 µM
Compound: O=C1C2=C(CCN(Cc3ccccc3)C2)N2CCN=C2N1Cc1ccc(C(F)(F)F)cc1 [Compound I-39, 7-benzyl-4-(4-(trifluoromethyl)benzyl)-1,2,6,7,8,9-hexahydroimidazo[1,2-a]pyrido[3,4-e]pyrimidin-5(4H)-one]

IC50 [1]: 0.08 µM
IC50 [2]: 0.12 ± 0.01 µM
Compound: O=C1C2=C(CCN(Cc3ccccc3)C2)N2CCN=C2N1Cc1ccc(Cl)c(Cl)c1 [Compound I-40, 7-benzyl-4-(3,4-dichlorobenzyl)-1,2,6,7,8,9-hexahydroimidazo[1,2-a]pyrido[3,4-e]pyrimidin-5(4H)-one]

IC50 [1]: 1.73 ± 0.25 µM
IC50 [2]: 2.01 ± 0.01 µM
Compound: O=C1C2=C(CCN(Cc3ccccc3)C2)N2CCN=C2N1Cc1ccc(Cl)cc1Cl [Compound I-41, 7-benzyl-4-(2,4-dichlorobenzyl)-1,2,6,7,8,9-hexahydroimidazo[1,2-a]pyrido[3,4-e]pyrimidin-5(4H)-one]

IC50 [1]: 0.73 µM
IC50 [2]: 1.07 ± 0.01 µM
Compound: O=C1C2=C(CCN(Cc3ccccc3)C2)N2CCN=C2N1Cc1ccc(Cl)c(C(F)(F)F)c1 [Compound I-42, 7-benzyl-4-(4-chloro-3-(trifluoromethyl)benzyl)-1,2,6,7,8,9-hexahydroimidazo[1,2-a]pyrido[3,4-e]pyrimidin-5(4H)-one]

IC50 [1]: 4.29 ± 0.21 µM
IC50 [2]: 2.85 ± 0.77 µM
Compound: O=C1C2=C(CCN(Cc3ccccc3)C2)N2CCN=C2N1Cc1ccc(Cl)cc1C(F)(F)F [Compound I-43, 7-benzyl-4-(4-chloro-2-(trifluoromethyl)benzyl)-1,2,6,7,8,9-hexahydroimidazo[1,2-a]pyrido[3,4-e]pyrimidin-5(4H)-one]

IC50 [1]: 0.58 ± 0.043 µM
IC50 [2]: 0.93 ± 0.098 µM
Compound: O=C1C2=C(CCN(Cc3cccc(F)c3)C2)N2CCN=C2N1Cc1ccccc1F [Compound I-49, 4-(2-fluorobenzyl)-7-(3-fluorobenzyl)-1,2,6,7,8,9-hexahydroimidazo[1,2-a]pyrido[3,4-e]pyrimidin-5(4H)-one]

IC50 [1]: 0.77 ± 0.014 µM
IC50 [2]: 1.77 ± 0.429 µM
Compound: O=C1C2=C(CCN(Cc3cccc(F)c3)C2)N2CCN=C2N1Cc1ccccc1C(F)(F)F [Compound I-50, 7-(3-fluorobenzyl)-4-(2-(trifluoromethyl)benzyl)-1,2,6,7,8,9-hexahydroimidazo[1,2-a]pyrido[3,4-e]pyrimidin-5(4H)-one]

IC50 [1]: 0.7 ± 0.001 µM
IC50 [2]: 0.73 ± 0.004 µM
Compound: O=C1C2=C(CCN(Cc3cccc(F)c3)C2)N2CCN=C2N1Cc1ccccc1Cl [Compound I-51, 4-(2-chlorobenzyl)-7-(3-fluorobenzyl)-1,2,6,7,8,9-hexahydroimidazo[1,2-a]pyrido[3,4-e]pyrimidin-5(4H)-one]
